Consider seven molecules from ChEMBL document CHEMBL1153786, “Cardenolide glycosides of Thevetia peruviana and triterpenoid saponins of Sapindus emarginatus as TRAIL resistance-overcoming compounds” (2009).

Calls of active or inactive are those of the source. No cut-off for these calls is given here.

Format in all cases: functional
Assay [1] deals with AGS. Description: Cytotoxicity against human TRAIL-resistant AGS cells after 24 hrs by FMCA in presence of TRAIL.
In assay [2] the test system is AGS. Description: Cytotoxicity against human TRAIL-resistant AGS cells at 27.1 nM after 24 hrs by FMCA in presence of TRAIL.
Assay [3] has as its system AGS. Description: Cytotoxicity against human TRAIL-resistant AGS cells at 29.2 nM after 24 hrs by FMCA in presence of TRAIL.
Assay [4] concerns AGS. The assay can be described thus: Cytotoxicity against human TRAIL-resistant AGS cells at 29.2 nM after 24 hrs by FMCA in absence of TRAIL.
Assay [5] has as its system AGS. Description: Cytotoxicity against human TRAIL-resistant AGS cells at 125 nM after 24 hrs by FMCA in presence of TRAIL.
The test system of assay [6] is AGS. Description: Cytotoxicity against human TRAIL-resistant AGS cells at 125 nM after 24 hrs by FMCA in absence of TRAIL.
The test system of assay [7] is AGS. The assay can be described thus: Induction of DR4 mRNA expression in human TRAIL-resistant AGS cells at 125 nM by reat-time RT-PCR analysis relative to GADPH.
The subject of assay [8] is AGS. Description: Induction of DR4 mRNA expression in human TRAIL-resistant AGS cells at 250 nM by reat-time RT-PCR analysis relative to GADPH.
For assay [9], the system named is AGS. Description: Induction of DR4 mRNA expression in human TRAIL-resistant AGS cells at 500 nM by reat-time RT-PCR analysis relative to GADPH.
In assay [10] the test system is AGS. Description: Induction of DR5 mRNA expression in human TRAIL-resistant AGS cells at 125 nM by reat-time RT-PCR analysis relative to GADPH.
The test system of assay [11] is AGS. Description: Induction of DR5 mRNA expression in human TRAIL-resistant AGS cells at 250 nM by reat-time RT-PCR analysis relative to GADPH.
Assay [12] deals with AGS. The assay can be described thus: Induction of DR5 mRNA expression in human TRAIL-resistant AGS cells at 500 nM by reat-time RT-PCR analysis relative to GADPH.

As to `CC(=O)O[C@H]1[C@H](O[C@@H]2[C@@H](O)[C@H](C)O[C@@H](O[C@H]3[C@H](O[C@H]4CC[C@@]5(C)[C@@H](CC[C@]6(C)[C@@H]5CC=C5[C@@H]7CC(C)(C)CCC7(C(=O)O)CC[C@]56C)[C@]4(C)CO)OC[C@H](O)[C@@H]3O)[C@@H]2O)OC[C@@H](O)[C@@H]1O` (stereo partly specified), the result with AGS [1] was Active. Moreover, in the assay on AGS [2], the Activity is listed as 45%.

`CC(=O)O[C@@H]1CO[C@@H](O[C@@H]2[C@@H](O)[C@H](C)O[C@@H](O[C@H]3[C@H](O[C@H]4CC[C@@]5(C)[C@@H](CC[C@]6(C)[C@@H]5CC=C5[C@@H]7CC(C)(C)CCC7(C(=O)O)CC[C@]56C)[C@]4(C)CO)OC[C@H](O)[C@@H]3O)[C@@H]2O)[C@H](O)[C@H]1O` (stereo partly specified): the result in the assay with AGS [1] was Active.

`CC(=O)O[C@@H]1[C@@H](O)[C@H](O[C@@H]2[C@@H](O)[C@H](C)O[C@@H](O[C@H]3[C@H](O[C@H]4CC[C@@]5(C)[C@@H](CC[C@]6(C)[C@@H]5CC=C5[C@@H]7CC(C)(C)CCC7(C(=O)O)CC[C@]56C)[C@]4(C)CO)OC[C@H](O)[C@@H]3O)[C@@H]2O)OC[C@H]1OC(C)=O` (stereo partly specified): the result in the assay with AGS [1] was Active.

For the molecule `CC(=O)O[C@H]1[C@H](O[C@@H]2[C@@H](O)[C@H](C)O[C@@H](O[C@H]3[C@H](O[C@H]4CC[C@@]5(C)[C@@H](CC[C@]6(C)[C@@H]5CC=C5[C@@H]7CC(C)(C)CCC7(C(=O)O)CC[C@]56C)[C@]4(C)CO)OC[C@H](O)[C@@H]3O)[C@@H]2O)OC[C@@H](OC(C)=O)[C@@H]1O` (stereo partly specified), the outcome with AGS [1] was Active.

As for `O=c1cc(-c2ccc(O)c(O)c2)oc2cc(O)cc(O)c12` [LUTEOLIN], in the assay with AGS [1], the Activity came to 70%.

As to `CO[C@H]1[C@H](O)[C@H](O[C@H]2CC[C@@]3(C)[C@H](CC[C@@H]4[C@@H]3CC[C@]3(C)[C@@H](C5=CC(=O)OC5)CC[C@]43O)C2)O[C@@H](C)[C@@H]1O` [NERIIFOLIN], the values for the Activity in the assay on AGS [3] and with AGS [4] were 36% and 79%, respectively.

For `CO[C@H]1[C@H](O)[C@H](O[C@H]2CC[C@@]3(C)[C@@H](CC[C@@H]4[C@@H]3CC[C@]3(C)[C@@H](C5=CC(=O)OC5)CC[C@]43O)C2)O[C@@H](C)[C@@H]1O` [THEVEFOLIN], the values for the Activity with AGS [5] and with AGS [6] were 46% and 65%, respectively. The “fold change (FC)” value was determined as 1.8 in the assay with AGS [7]; 3.3 in the assay on AGS [8]; 3.6 in the assay with AGS [9]; 1.2 in the assay with AGS [10]; 1.6 in the assay on AGS [11]; 1.8 in the assay with AGS [12].
